≈ marks a conversion by molar mass, not a printed value.
Tests used:
[1] = Plasma protein binding in rat at 5 uM measured after 4 hrs by LC-MS/MS analysis
[2] = in vivo; details: male, Sprague-Dawley, rat, po
Description: Half-life in male Sprague-Dawley rat at 2.5 mg/kg, po administered as single gavage dose using PEG-200/water formulation measured after 24 hrs by LC-MS/MS analysis

[3] = Half-life in CD1 mouse at 1 mg/kg, iv administered as single bolus dose using PEG-200/saline formulation measured after 24 hrs by LC-MS/MS analysis; details: in vivo
[4] = in vivo; details: Balb/cj, mouse, plasma, po, 10 mg/kg
[5] = Inhibition of embelin-induced migration of human neutrophils preincubated for 30 mins followed by embelin addition and measured after 1 hr by ATPlite luminescence assay; details: Neutrophil
[6] = Clearance in CD1 mouse at 1 mg/kg, iv administered as single bolus dose using PEG-200/saline formulation measured after 24 hrs by LC-MS/MS analysis; details: in vivo
[7] = in vitro; details: rat, cryopreserved hepatocytes
[8] = in vitro; details: rat, liver microsomes
[9] = in vivo; details: male, Sprague-Dawley, rat, po; remark: listed apart in the source
[10] = in vivo; details: Balb/c, mouse, plasma, po, 3 mg/kg
[11] = Half-life in plasma of Balb/c mouse model of DSS-induced colitis at 3 mg/kg, po administered using PEG-200/water formulation starting from day 1 to 11 measured by LC-MS analysis
[12] = in vivo; details: CD1, mouse, po, 5 mg/kg
[13] = Volume of distribution at steady state in male Sprague-Dawley rat at 0.5 mg/kg, iv administered as single bolus dose using PEG-200/NaCl formulation measured after 24 hrs by LC-MS/MS analysis; details: in vivo
[14] = target: Cytochrome P450 2D6 (Homo sapiens) (UniProt P10635)
[15] = in vitro; details: dog, cryopreserved hepatocytes
[16] = Plasma protein binding in human at 5 uM measured after 4 hrs by LC-MS/MS analysis
[17] = in vitro; details: dog, liver microsomes
[18] = in vitro; details: dog, cryopreserved hepatocytes; remark: listed apart in the source
[19] = Clearance in Beagle dog at 0.5 mg/kg, iv administered as 10 mins infusion via catheter by LC-MS/MS analysis; details: in vivo
[20] = in vivo; details: CD1, mouse, iv, 1 mg/kg
[21] = in vitro; details: mouse, liver microsomes
[22] = Apparent permeability from apical to basolateral in human Caco2 cells at 10 uM measured after 60 mins by lucifer yellow dye based LC-MS/MS analysis; details: Caco-2
[23] = target: T1, Cytochrome P450 1A2 (Homo sapiens, UniProt P05177); assay: Inhibition of CYP1A2 in human liver microsomes using probe substrate and in presence of co-factor preincubated for 20 mins followed by substrate addition by LC-MS/MS analysis
T1 sequence (P05177 whole entry): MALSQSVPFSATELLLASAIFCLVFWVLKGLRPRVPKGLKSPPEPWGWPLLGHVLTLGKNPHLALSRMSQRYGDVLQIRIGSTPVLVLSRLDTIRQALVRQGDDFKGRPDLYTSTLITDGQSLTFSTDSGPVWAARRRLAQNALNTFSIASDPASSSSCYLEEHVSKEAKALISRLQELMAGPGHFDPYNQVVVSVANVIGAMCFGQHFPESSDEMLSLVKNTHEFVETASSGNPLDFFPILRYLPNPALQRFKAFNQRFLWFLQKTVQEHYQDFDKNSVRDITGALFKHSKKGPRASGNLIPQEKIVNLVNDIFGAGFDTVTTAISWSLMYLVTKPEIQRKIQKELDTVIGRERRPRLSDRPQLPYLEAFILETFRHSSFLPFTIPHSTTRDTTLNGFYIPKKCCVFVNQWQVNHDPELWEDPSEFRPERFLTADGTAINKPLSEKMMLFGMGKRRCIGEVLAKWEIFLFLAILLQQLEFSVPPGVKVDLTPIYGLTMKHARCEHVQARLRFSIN

[24] = physchem; details: aqueous solution with 2% DMSO, pH 3
[25] = in vivo; details: Balb/c, mouse, plasma, po, 3 mg/kg; remark: listed apart in the source
[26] = in vivo; details: Balb/c, mouse, plasma, po, 10 mg/kg
[27] = Volume of distribution at steady state in CD1 mouse at 1 mg/kg, iv administered as single bolus dose using PEG-200/saline formulation measured after 24 hrs by LC-MS/MS analysis; details: in vivo
[28] = in vivo; details: Beagle, dog, po
[29] = in vivo; details: male, Sprague-Dawley, rat, po; remark: listed apart in the source
[30] = Volume of distribution at steady state in Beagle dog at 0.5 mg/kg, iv administered as 10 mins infusion via catheter by LC-MS/MS analysis; details: in vivo
[31] = Initial plasma concentration in CD1 mouse at 1 mg/kg, iv administered as single bolus dose using PEG-200/saline formulation measured after 24 hrs by LC-MS/MS analysis
[32] = in vivo; details: CD1, mouse, po, 5 mg/kg; remark: listed apart in the source
[33] = in vitro; details: mouse, cryopreserved hepatocytes
[34] = Initial plasma concentration in male Sprague-Dawley rat at 0.5 mg/kg, iv administered as single bolus dose using PEG-200/NaCl formulation measured after 24 hrs by LC-MS/MS analysis
[35] = in vivo; details: Beagle, dog, po; remark: listed apart in the source
Description: Half life in Beagle dog at 2.5 mg/kg, po administered as single dose via gavage by LC-MS/MS analysis

[36] = in vivo; details: male, Sprague-Dawley, rat, iv, 0.5 mg/kg
[37] = in vivo; details: CD1, mouse, po, 5 mg/kg; remark: listed apart in the source
[38] = in vitro; details: human, liver microsomes
[39] = target: T2, Cytochrome P450 3A4 (Homo sapiens, UniProt P08684); assay: Time-dependent inhibition of CYP3A4 in human liver microsomes using testosterone as substrate and in presence of co-factor by LC-MS/MS analysis
[40] = target: T2, Cytochrome P450 3A4; assay: Inhibition of CYP3A4 in human liver microsomes using midazolam as substrate and in presence of co-factor preincubated for 20 mins followed by substrate addition by LC-MS/MS analysis
[41] = in vivo; details: Beagle, dog, po; remark: listed apart in the source
[42] = in vivo; details: Beagle, dog, po; remark: listed apart in the source

T2 sequence (P08684 whole entry): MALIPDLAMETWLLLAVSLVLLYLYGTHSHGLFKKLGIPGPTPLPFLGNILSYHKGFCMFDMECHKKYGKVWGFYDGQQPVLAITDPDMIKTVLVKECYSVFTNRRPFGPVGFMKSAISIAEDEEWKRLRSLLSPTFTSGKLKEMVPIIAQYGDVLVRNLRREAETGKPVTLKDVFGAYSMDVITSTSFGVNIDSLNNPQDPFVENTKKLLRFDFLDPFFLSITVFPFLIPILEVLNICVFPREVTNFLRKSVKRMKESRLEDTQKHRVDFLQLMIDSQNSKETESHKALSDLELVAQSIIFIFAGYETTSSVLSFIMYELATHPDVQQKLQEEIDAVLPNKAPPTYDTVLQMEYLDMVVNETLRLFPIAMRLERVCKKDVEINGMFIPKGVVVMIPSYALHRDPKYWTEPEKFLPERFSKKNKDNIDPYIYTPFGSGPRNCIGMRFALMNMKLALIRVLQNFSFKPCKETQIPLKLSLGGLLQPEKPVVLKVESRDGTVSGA
Sequence of Cytochrome P450 2D6 (Homo sapiens) (P10635 whole entry, looked up): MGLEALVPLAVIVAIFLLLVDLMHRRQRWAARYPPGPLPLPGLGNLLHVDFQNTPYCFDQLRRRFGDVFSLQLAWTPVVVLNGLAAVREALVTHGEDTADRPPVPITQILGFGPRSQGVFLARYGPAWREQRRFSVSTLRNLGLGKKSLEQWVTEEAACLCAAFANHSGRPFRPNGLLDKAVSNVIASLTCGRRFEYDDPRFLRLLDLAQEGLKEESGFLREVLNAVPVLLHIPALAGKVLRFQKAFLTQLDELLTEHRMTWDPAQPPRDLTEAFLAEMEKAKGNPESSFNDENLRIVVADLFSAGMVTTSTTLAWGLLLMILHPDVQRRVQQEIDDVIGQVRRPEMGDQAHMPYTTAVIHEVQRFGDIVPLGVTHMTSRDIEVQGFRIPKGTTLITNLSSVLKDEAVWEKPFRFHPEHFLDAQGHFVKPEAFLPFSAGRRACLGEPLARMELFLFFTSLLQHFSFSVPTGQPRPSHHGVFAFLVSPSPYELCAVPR

- fraction unbound at 4 h, 5 µM [1]: 0.023
- half-life at 24 h [2]: 1.3 h
- half-life at 24 h [3]: 0.6 h
- Cmax [4]: 8140 ng/mL
- IC50 [5]: 0.011 µM
- clearance at 24 h [6]: 15 mL/min/kg
- CLint scaled at 1 µM [7]: < 33.3 mL/min/kg
- CLint scaled at 0.5 h, 1 µM [8]: 66.7 mL/min/kg
- Cmax at 24 h [9]: 1160 ng/mL
- Tmax [10]: 1 h
- half-life [11]: 2.9 h
- Cmax at 24 h [12]: 4590 ng/mL
- Vd at 24 h [13]: 1.2 L/kg
- IC50 [14]: > 100 µM
- half-life at 1 µM [15]: > 3.33 h
- fraction unbound at 4 h, 5 µM [16]: 0.028
- CLint scaled at 0.5 h, 1 µM [17]: 89 mL/min/kg
- CLint scaled at 1 µM [18]: < 24.2 mL/min/kg
- clearance at […] [19]: 20 mL/min/kg
- AUC(0-t) at 24 h [20]: 1050 ng·h/mL
- CLint scaled at 0.5 h, 1 µM [21]: 133 mL/min/kg
- Papp A→B at 1 h, 10 µM [22]: 41.9 ×10⁻⁶ cm/s
- IC50 [23]: > 100 µM
- solubility [24]: 113 µg/mL (≈ 299 µM)
- Cmax [25]: 1840 ng/mL
- AUC(0-t) at 24 h [26]: 50400 ng·h/mL
- Vd at 24 h [27]: 0.6 L/kg
- Tmax [28]: 0.5 h
- Tmax at 24 h [29]: 1.5 h
- Vd at […] [30]: 2 L/kg
- C0 at 24 h [31]: 1230 ng/mL
- AUC(0-t) at 24 h [32]: 15300 ng·h/mL
- CLint scaled at 1 µM [33]: < 72.8 mL/min/kg
- C0 at 24 h [34]: 395 ng/mL
- half-life [35]: 2 h
- AUC(0-t) at 24 h [36]: 710 ng·h/mL
- bioavailability at 24 h [37]: > 100%
- CLint scaled at 0.5 h, 1 µM [38]: < 19.3 mL/min/kg
- IC50 [39]: > 50 µM
- IC50 [40]: > 50 µM
- bioavailability [41]: > 100%
- AUC(0-t) at 24 h [42]: 2230 ng·h/mL
Structure (SMILES): O=c1nc(OC[C@@H]2COCCO2)cc2n1CCc1cc(C#CC3CC3)ccc1-2 [GLPG-1205]

Reference: ChEMBL document CHEMBL4673243, “Discovery of 9-Cyclopropylethynyl-2-((S)-1-[1,4]dioxan-2-ylmethoxy)-6,7-dihydropyrimido[6,1-a]isoquinolin-4-one (GLPG1205), a Unique GPR84 Negative Allosteric Modulator Undergoing Evaluation in a Phase II Clinical Trial” (J Med Chem, 2020)
